This assay concerns P388 leukemia ip, CD2F1 mice, survival T/C. Put plainly: NCI In Vivo Anticancer Drug Screen. Data for tumor model P388 Leukemia (intraperitoneal) in CD2F1 (CDF1) mice. As to conditions: endpoint: median survival time, higher = longer survival. A digest of the protocol: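 Mice carrying the transplanted tumor received test compound or vehicle. Survival was recorded in each group, and the value is the treated-group measurement divided by that of the vehicle-treated control group.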

[1] abbreviates: dose: 50.0 mg/kg/injection, schedule: Q01DX005 (ip), vehicle: Klucel (hydroxypropylcellulose) (HPC).
Setting [2] is: dose: 100.0 mg/kg/injection, schedule: Q01DX005 (ip), vehicle: Klucel (hydroxypropylcellulose) (HPC).
The mark [3] stands for this setting: dose: 200.0 mg/kg/injection, schedule: Q01DX005 (ip), vehicle: Klucel (hydroxypropylcellulose) (HPC).

Each structure is given as a SMILES string. Values joined by “and” are separate entries in the source; they are usually repeats but may differ in a detail not shown here. Equal values may be shown once. Inconclusive results and toxic doses are left out.

In the case of `CCCCC(=O)OCC(=O)[C@]1(O)Cc2c(O)c3c(c(O)c2[C@@H](OC2CC(NC(=O)C(F)(F)F)C(O)C(C)O2)C1)C(=O)c1c(OC)cccc1C3=O` (some centres not stated), the T/C was 98 % of control (dose: 0.5 mg/kg/injection, schedule: Q04DX003 (ip), vehicle: saline with Tween-80); 104 % of control (dose: 1.0 mg/kg/injection, schedule: Q04DX003 (ip), vehicle: saline with Tween-80); 124 % of control (dose: 1.4 mg/kg/injection, schedule: Q01DX009 (ip), vehicle: clinical formulation); 99 % of control and 101 % of control (dose: 2.0 mg/kg/injection, schedule: Q04DX003 (ip), vehicle: saline with Tween-80); 100 % of control and 101 % of control and 105 % of control (dose: 4.0 mg/kg/injection, schedule: Q04DX003 (ip), vehicle: saline with Tween-80); 162 % of control (dose: 6.48 mg/kg/injection, schedule: Q01DX009 (ip), vehicle: clinical formulation). The T/C runs as follows: (dose: 8.0 mg/kg/injection, schedule: Q04DX003 (ip), vehicle: saline with Tween-80) 114 % of control and 121 % of control and 97 % of control; (dose: 9.38 mg/kg/injection, schedule: Q04DX003 (ip), vehicle: clinical formulation) 111 % of control; (dose: 10.8 mg/kg/injection, schedule: Q01DX009 (ip), vehicle: clinical formulation) 189 % of control and 193 % of control; (dose: 13.0 mg/kg/injection, schedule: Q04DX003 (ip), vehicle: clinical formulation) 124 % of control; (dose: 16.0 mg/kg/injection, schedule: Q04DX003 (ip), vehicle: saline with Tween-80) 121 % of control; (dose: 18.0 mg/kg/injection, schedule: Q01DX009 (ip), vehicle: clinical formulation) 224 % of control and 232 % of control. The T/C was 118 % of control (dose: 18.75 mg/kg/injection, schedule: Q04DX003 (ip), vehicle: clinical formulation); 196 % of control and 333 % of control (dose: 30.0 mg/kg/injection, schedule: Q01DX004 (ip), vehicle: distilled water + Tween-80); 303 % of control and 560 % of control (dose: 30.0 mg/kg/injection, schedule: Q01DX009 (ip), vehicle: clinical formulation); 156 % of control (dose: 32.4 mg/kg/injection, schedule: Q04DX003 (ip), vehicle: clinical formulation); 163 % of control (dose: 36.0 mg/kg/injection, schedule: Q04DX003 (ip), vehicle: clinical formulation); 123 % of control (dose: 37.5 mg/kg/injection, schedule: Q04DX003 (ip), vehicle: clinical formulation). Moreover, the T/C (dose: 37.5 mg/kg/injection, schedule: Q04DX003 (ip), vehicle: saline with Tween-80) is 156 % of control; the T/C (dose: 37.5 mg/kg/injection, schedule: Q04DX003 (iv), vehicle: saline with Tween-80) is 120 % of control; the T/C (dose: 40.0 mg/kg/injection, schedule: Q01DX004 (ip), vehicle: distilled water + Tween-80) was 171 % of control; the T/C (dose: 50.0 mg/kg/injection, schedule: Q01DX004 (ip), vehicle: distilled water + Tween-80) was 91 % of control; the T/C (dose: 50.0 mg/kg/injection, schedule: Q01DX009 (ip), vehicle: clinical formulation) is 110 % of control; the T/C (dose: 54.0 mg/kg/injection, schedule: Q04DX003 (ip), vehicle: clinical formulation) is 193 % of control. Also, the T/C (dose: 60.0 mg/kg/injection, schedule: Q01DX004 (ip), vehicle: distilled water + Tween-80) was 89 % of control; the T/C (dose: 60.0 mg/kg/injection, schedule: Q04DX003 (ip), vehicle: clinical formulation) was 219 % of control; the T/C (dose: 64.0 mg/kg/injection, schedule: Q04DX003 (ip), vehicle: saline with Tween-80) is 153 % of control and 161 % of control; the T/C (dose: 75.0 mg/kg/injection, schedule: Q04DX003 (ip), vehicle: clinical formulation) is 189 % of control; the T/C (dose: 75.0 mg/kg/injection, schedule: Q04DX003 (ip), vehicle: saline with Tween-80) is 180 % of control; the T/C (dose: 75.0 mg/kg/injection, schedule: Q04DX003 (iv), vehicle: saline with Tween-80) is 106 % of control. The T/C was 219 % of control (dose: 90.0 mg/kg/injection, schedule: Q04DX003 (ip), vehicle: clinical formulation); 242 % of control (dose: 100.0 mg/kg/injection, schedule: Q04DX003 (ip), vehicle: clinical formulation); 168 % of control and 180 % of control and 201 % of control (dose: 128.0 mg/kg/injection, schedule: Q04DX003 (ip), vehicle: saline with Tween-80); 243 % of control and 270 % of control (dose: 150.0 mg/kg/injection, schedule: Q04DX003 (ip), vehicle: saline with Tween-80); 153 % of control (dose: 150.0 mg/kg/injection, schedule: Q04DX003 (iv), vehicle: saline with Tween-80); 173 % of control and 190 % of control and 257 % of control (dose: 256.0 mg/kg/injection, schedule: Q04DX003 (ip), vehicle: saline with Tween-80). Also, the T/C was 87 % of control (dose: 300.0 mg/kg/injection, schedule: Q04DX003 (ip), vehicle: clinical formulation); 252 % of control (dose: 300.0 mg/kg/injection, schedule: Q04DX003 (ip), vehicle: saline with Tween-80); 222 % of control (dose: 300.0 mg/kg/injection, schedule: Q04DX003 (iv), vehicle: saline with Tween-80); 117 % of control (dose: 512.0 mg/kg/injection, schedule: Q04DX003 (ip), vehicle: saline with Tween-80); 169 % of control (dose: 600.0 mg/kg/injection, schedule: Q04DX003 (iv), vehicle: saline with Tween-80); 107 % of control (dose: 1024.0 mg/kg/injection, schedule: Q04DX003 (ip), vehicle: saline with Tween-80).
With `CC1(C)CC(O)CC2(C)OC(=O)C=C12` (configuration not stated), the T/C is, setting by setting: (dose: 2.5 mg/kg/injection, schedule: Q01DX009 (ip), vehicle: DMSO) 101 % of control; (dose: 5.0 mg/kg/injection, schedule: Q01DX009 (ip), vehicle: DMSO) 103 % of control; (dose: 10.0 mg/kg/injection, schedule: Q01DX009 (ip), vehicle: DMSO) 91 % of control.
As to `COc1cc(/C=C/Cc2cc3c(cc2O)OCO3)cc(OC)c1OC`, the T/C is 95 % of control (dose: 60.0 mg/kg/injection, schedule: Q01DX005 (ip), vehicle: saline with Tween-80); 90 % of control (dose: 120.0 mg/kg/injection, schedule: Q01DX005 (ip), vehicle: saline with Tween-80); 89 % of control (dose: 240.0 mg/kg/injection, schedule: Q01DX005 (ip), vehicle: saline with Tween-80).
Regarding `CCOC1NC(=O)C(OCC)NC1=O` (configuration not stated), the T/C was 96 % of control under setting [1], 99 % of control under setting [2] and 97 % of control under setting [3].
On to `CC(C)C1OC(c2ccc(Cl)cc2)OCC1(C)C` (configuration not stated), for which the T/C by setting is: (dose: 100.0 mg/kg/injection, schedule: Q04DX003 (ip), vehicle: saline with Tween-80) 114 % of control; (dose: 200.0 mg/kg/injection, schedule: Q04DX003 (ip), vehicle: saline with Tween-80) 110 % of control; (dose: 400.0 mg/kg/injection, schedule: Q04DX003 (ip), vehicle: saline with Tween-80) 97 % of control.
For the molecule `C=C1C(=O)N2CCc3c([nH]c4ccccc34)[C@H]2C[C@@H]1CO`, the T/C under setting [1] was 95 % of control, the T/C under setting [2] is 88 % of control and the T/C under setting [3] was 96 % of control.

(Values after PubChem BioAssay AID330 (DTP/NCI, 2004).)
